Measured values reported in ChEMBL document CHEMBL3714723, “Thiazole and oxazole-substituted arylamides as P2X3 and P2X2/3 antagonists” (2010).
Calls of active or inactive are those of the source. No rule for the calls is given here.

The compounds below were run against T1, P2X purinoceptor 3 (Rattus norvegicus) (UniProt P49654) (assay: Antagonist activity against rat P2X3 receptor expressed in CHOK1 cells assessed as inhibition of alpha,beta-meATP-induced calcium response incubated for 20 mins by Fluo-3AM dye based FLIPR assay). Conditions: CHO-K1.
T1 sequence (whole entry): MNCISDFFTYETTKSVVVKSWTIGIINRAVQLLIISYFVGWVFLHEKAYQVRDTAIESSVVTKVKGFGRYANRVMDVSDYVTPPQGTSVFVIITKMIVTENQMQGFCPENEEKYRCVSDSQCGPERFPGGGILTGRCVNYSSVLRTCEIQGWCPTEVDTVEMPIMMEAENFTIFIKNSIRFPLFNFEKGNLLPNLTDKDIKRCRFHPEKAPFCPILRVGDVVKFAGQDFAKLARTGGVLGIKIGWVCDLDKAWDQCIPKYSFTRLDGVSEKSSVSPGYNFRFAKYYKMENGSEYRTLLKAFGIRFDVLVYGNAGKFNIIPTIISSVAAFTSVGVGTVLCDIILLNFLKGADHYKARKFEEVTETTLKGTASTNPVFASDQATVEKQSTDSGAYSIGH
Type: functional, cell-based

| Compound | antagonist activity call (active/inactive) |
| --- | --- |
| Cc1ccc(-c2cc(C(=O)N[C@H](C)CN3CCN(S(C)(=O)=O)CC3)cc(-c3nccs3)c2)c(F)c1 | Active |
| COCC(C)NC(=O)c1cc(-c2ccc(C)cc2)cc(-c2ncco2)c1 (stereo not given) | Active |
| Cc1ccc(-c2cc(C(=O)NC(C)c3cnccn3)cc(-c3nccs3)c2)c(F)c1 (stereo not given) | Active |
| Cc1ccc(-c2cc(C(=O)N[C@@H](C)CO)cc(-c3scnc3C(C)C)c2)nc1 | Active |
| Cc1ccc(-c2cc(C(=O)NC(C)CO)cc(-c3scnc3C)c2)cc1 (stereo not given) | Active |
| Cc1ccc(-c2cc(C(=O)N[C@H](C)CO)cc(-c3nccs3)c2)cc1 | Active |
| CNC(=O)c1cnc(-c2cc(C(=O)NC(C)COC)cc(-c3ccc(C)cc3)c2)s1 (stereo not given) | Active |
| C[C@H](CN1CCOCC1)NC(=O)c1cc(-c2cncs2)cc(-c2ccc(F)cc2Cl)c1 | Active |
| COCC(C)NC(=O)c1cc(-c2ccc(C)cc2)cc(-c2oncc2C)c1 (stereo not given) | Active |
| COCC(C)NC(=O)c1cc(-c2ccc(C)cc2)cc(-c2nccs2)c1 (stereo not given) | Active |
| C[C@H](CN1CCOCC1)NC(=O)c1cc(-c2nccs2)cc(-c2ccc(F)cc2Cl)c1 | Active |
| COCC(C)NC(=O)c1cc(-c2ccc(C)cc2)cc(-c2ncc(C(=O)N(C)C)s2)c1 (stereo not given) | Active |
| CCC(C)(C)NC(=O)c1cc(-c2ccc(C)cc2)cc(-c2nccs2)c1 | Active |
| COCC(C)NC(=O)c1cc(-c2ccc(C)cc2)cc(-c2nc3ccccc3s2)c1 (stereo not given) | Active |
| CCc1ncsc1-c1cc(C(=O)NCc2cnc(C)cn2)cc(-c2ccc(C)cc2)c1 | Active |
| COCC(C)NC(=O)c1cc(-c2ccc(C)cc2)cc(-c2cocn2)c1 (stereo not given) | Active |
| Cc1ccc(-c2cc(C(=O)N[C@H](C)CN3CCN(S(C)(=O)=O)CC3)cc(-c3nccs3)c2)cc1 | Active |
| Cc1ccc(-c2cc(C(=O)NC(C)c3cnccn3)cc(-c3scnc3C)c2)cc1 (stereo not given) | Active |
| COC[C@H](C)NC(=O)c1cc(-c2ccc(C)cc2)cc(-c2scnc2C)c1 | Active |
| COCC(C)NC(=O)c1cc(-c2ccc(C)cc2)cc(-c2cncs2)c1 (stereo not given) | Active |
| CCC(C)NC(=O)c1cc(-c2ccc(C)cc2)cc(-c2nccs2)c1 (stereo not given) | Active |
| C[C@H](CN1CCN(S(C)(=O)=O)CC1)NC(=O)c1cc(-c2cncs2)cc(-c2ccc(F)cc2Cl)c1 | Active |
| Cc1ccc(-c2cc(C(=O)NCc3ccc(C)nn3)cc(-c3scnc3C(C)C)c2)nc1 | Active |
| COCC(C)NC(=O)c1cc(-c2ccc(C)cc2)cc(-c2ncc(C(=O)NC(C)C)s2)c1 (stereo not given) | Active |
| CC(=O)N1CCN(C[C@@H](C)NC(=O)c2cc(-c3ccc(C)cc3)cc(-c3scnc3C)c2)CC1 | Active |
| COCC(C)NC(=O)c1cc(-c2ccc(C)cc2)cc(-c2cnco2)c1 (stereo not given) | Active |
| CC(=O)N1CCN(C[C@@H](C)NC(=O)c2cc(-c3ccc(C)cc3)cc(-c3nccs3)c2)CC1 | Active |
| Cc1ccc(-c2cc(C(=O)N[C@H](C)CN3CCN(S(C)(=O)=O)CC3)cc(-c3cncs3)c2)cc1 | Active |

| Compound | antagonist activity call (active/inactive) |
| --- | --- |
| COCC(C)NC(=O)c1cc(-c2ccc(C)cc2)cc(-c2ccns2)c1 (stereo not given) | Active |
| Cc1ccc(-c2cc(C(=O)N[C@H](C)CO)cc(-c3nccs3)c2)c(F)c1 | Active |
| Cc1ccc(-c2cc(C(=O)N[C@H](C)CN3CCN(S(C)(=O)=O)CC3)cc(-c3cncs3)c2)c(F)c1 | Active |
| Cc1ccc(-c2cc(C(=O)N[C@H](C)CN3CCS(=O)(=O)CC3)cc(-c3scnc3C)c2)cc1 | Active |
| COCC(C)NC(=O)c1cc(-c2ccc(C)cc2)cc(-c2cscn2)c1 (stereo not given) | Active |
| COc1ccc([C@@H](C)NC(=O)c2cc(-c3ccc(C)cc3)cc(-c3nccs3)c2)cc1 | Active |
| COC[C@@H](C)NC(=O)c1cc(-c2ccc(C)cc2)cc(-c2scnc2C)c1 | Active |
| CC(=O)N1CCN(C[C@@H](C)NC(=O)c2cc(-c3ccc(C)cc3)cc(-c3cncs3)c2)CC1 | Active |
| Cc1ccc(-c2cc(C(=O)NCCOCCO)cc(-c3nccs3)c2)cc1 | Active |
| Cc1ccc(-c2cc(C(=O)NCc3ccc(C)nn3)cc(-c3ncsc3C(C)C)c2)nc1 | Active |
| Cc1ccc(-c2cc(C(=O)NC(C)c3ccco3)cc(-c3nccs3)c2)cc1 (stereo not given) | Active |
| COCC(C)NC(=O)c1cc(-c2cncs2)cc(-c2ccc(F)cc2F)c1 (stereo not given) | Active |
| Cc1ccc(-c2cc(C(=O)N[C@H](C)CN3CCOCC3)cc(-c3nccs3)c2)cc1 | Active |
| COCC(C)NC(=O)c1cc(-c2cncs2)cc(-c2ccc(F)cc2Cl)c1 (stereo not given) | Active |
| COCC(C)NC(=O)c1cc(-c2ccc(C)cc2)cc(-c2scnc2C)c1 (stereo not given) | Active |
| C[C@H](CN1CCN(S(C)(=O)=O)CC1)NC(=O)c1cc(-c2nccs2)cc(-c2ccc(F)cc2Cl)c1 | Active |
| Cc1ccc(-c2cc(C(=O)NC(C)c3cnccn3)cc(-c3nccs3)c2)cc1 (stereo not given) | Active |
| Cc1ccc(-c2cc(C(=O)N[C@H](C)CN3CCOCC3)cc(-c3scnc3C)c2)cc1 | Active |
| COCC(C)NC(=O)c1cc(-c2ccc(C)cc2)cc(-c2ccno2)c1 (stereo not given) | Active |
| Cc1ccc(-c2cc(C(=O)N[C@H](C)CN3CCOCC3)cc(-c3cncs3)c2)cc1 | Active |
| Cc1ccc(-c2cc(C(=O)NC(C)(C)c3ccccc3)cc(-c3nccs3)c2)cc1 | Active |
| CCOC(=O)c1cnc(-c2cc(C(=O)NC(C)COC)cc(-c3ccc(C)cc3)c2)s1 (stereo not given) | Active |
| Cc1ccc(-c2cc(C(=O)N[C@H](C)CN3CCOCC3)cc(-c3nccs3)c2)c(F)c1 | Active |
| Cc1ccc(-c2cc(C(=O)NC(C)CN(C)C)cc(-c3nccs3)c2)cc1 (stereo not given) | Active |
| CC(=O)N1CCN(C[C@@H](C)NC(=O)c2cc(-c3nccs3)cc(-c3ccc(C)cc3F)c2)CC1 | Active |
| Cc1ccc(-c2cc(C(=O)NC(C)c3cnccn3)cc(-c3cncs3)c2)cc1 (stereo not given) | Active |
| CCCc1ncoc1-c1cc(C(=O)NCc2cnc(C)cn2)cc(-c2ccc(C)cn2)c1 | Active |
